According to PubChem BioAssay (NCI):
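Cultured in 96-well plates, cells were exposed to test compound for 48 hours across five concentrations. The concentration for full growth arrest is given as TGI.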

How the values were obtained:
Test in all cases: NCI-60 cell line screen, 48 h
MCF7 breast = system: MCF7 breast
SN12C renal = system: SN12C renal
SW-620 colon = system: SW-620 colon
CCRF-CEM leukemia = system: CCRF-CEM leukemia
HCT-116 colon = system: HCT-116 colon
HCC-2998 colon = system: HCC-2998 colon
HOP-62 NSCLC = system: HOP-62 NSCLC
A498 renal = system: A498 renal
MOLT-4 leukemia = system: MOLT-4 leukemia
LOX IMVI melanoma = system: LOX IMVI melanoma
786-0 renal = system: 786-0 renal
U251 CNS = system: U251 CNS
DU-145 prostate = system: DU-145 prostate
T-47D breast = system: T-47D breast
UACC-257 melanoma = system: UACC-257 melanoma
PC-3 prostate = system: PC-3 prostate
SK-MEL-28 melanoma = system: SK-MEL-28 melanoma
IGROV1 ovarian = system: IGROV1 ovarian
HL-60(TB) leukemia = system: HL-60(TB) leukemia
KM12 colon = system: KM12 colon
SK-OV-3 ovarian = system: SK-OV-3 ovarian
NCI-H23 lung = system: NCI-H23 lung
SF-539 CNS = system: SF-539 CNS
TK-10 renal = system: TK-10 renal
SK-MEL-2 melanoma = system: SK-MEL-2 melanoma
MDA-MB-231 breast = system: MDA-MB-231 breast
OVCAR-5 ovarian = system: OVCAR-5 ovarian
OVCAR-3 ovarian = system: OVCAR-3 ovarian
A549 NSCLC = system: A549 NSCLC
M14 melanoma = system: M14 melanoma
COLO 205 colon = system: COLO 205 colon
BT-549 breast = system: BT-549 breast
SK-MEL-5 melanoma = system: SK-MEL-5 melanoma
HS 578T breast = system: HS 578T breast
MALME-3M melanoma = system: MALME-3M melanoma
MDA-N = system: MDA-N
NCI-H522 lung = system: NCI-H522 lung
SF-268 CNS = system: SF-268 CNS
HCT-15 colon = system: HCT-15 colon
CAKI-1 renal = system: CAKI-1 renal
HOP-92 NSCLC = system: HOP-92 NSCLC
SNB-19 CNS = system: SNB-19 CNS
SF-295 CNS = system: SF-295 CNS
UO-31 renal = system: UO-31 renal
K-562 leukemia = system: K-562 leukemia
EKVX NSCLC = system: EKVX NSCLC
MDA-MB-435 = system: MDA-MB-435
UACC-62 melanoma = system: UACC-62 melanoma
HT29 colon = system: HT29 colon
SNB-75 CNS = system: SNB-75 CNS
NCI-H460 lung = system: NCI-H460 lung
NCI-H226 lung = system: NCI-H226 lung
RPMI-8226 leukemia = system: RPMI-8226 leukemia
NCI/ADR-RES ovarian = system: NCI/ADR-RES ovarian
OVCAR-8 ovarian = system: OVCAR-8 ovarian
ACHN renal = system: ACHN renal
OVCAR-4 ovarian = system: OVCAR-4 ovarian
RXF 393 renal = system: RXF 393 renal
SR leukemia = system: SR leukemia

Measured: TGI

c1ccc(N=C2SC(c3ccccc3)(c3ccccc3)c3ccccc32)cc1
not listed: SR leukemia
> 100 µM: all other assays above

Nc1ncnc2oc(-c3cccs3)nc12
not listed: MOLT-4 leukemia | SK-OV-3 ovarian | MALME-3M melanoma | CAKI-1 renal | SNB-75 CNS
> 100 µM: all other assays above

Cc1cn(CCOCCOC(=O)NC(CCCN=C(N)N)C(=O)O)c(=O)[nH]c1=O (stereo unspecified)
not listed: SK-MEL-5 melanoma | MALME-3M melanoma | NCI-H522 lung | CAKI-1 renal | OVCAR-8 ovarian
> 100 µM: all other assays above
